# Source: US20030032158A1, “Method of modulating the efficiency of translation termination and degradation of aberrant mRNA involving a surveillance complex comprising human Upf1p,eucaryotic release factor 1 and eucaryotic release factor 3” (University of Medicine and Dentistry of New Jersey, priority 1998, published 2003)
# “Also recorded” adds a separate entry of the source.
# Experiments:
# Upf1p-eRF3 interaction = molecular target: T1, Upf1p-eRF3 interaction (Saccharomyces cerevisiae, UniProt P30771); assay: GST-eRF3 pull-down of purified FLAG-Upf1p, immunoblot; format: binding, yeast; details: 1 mM ATP, 1 mM GTP or 100 μg/ml poly(U) RNA
# T1 construct: made in house; host or cells: GST-eRF3: E. coli BL21(DE3) pLysS with pGEX2T-SUP35
# T1 sequence (P30771 1-971): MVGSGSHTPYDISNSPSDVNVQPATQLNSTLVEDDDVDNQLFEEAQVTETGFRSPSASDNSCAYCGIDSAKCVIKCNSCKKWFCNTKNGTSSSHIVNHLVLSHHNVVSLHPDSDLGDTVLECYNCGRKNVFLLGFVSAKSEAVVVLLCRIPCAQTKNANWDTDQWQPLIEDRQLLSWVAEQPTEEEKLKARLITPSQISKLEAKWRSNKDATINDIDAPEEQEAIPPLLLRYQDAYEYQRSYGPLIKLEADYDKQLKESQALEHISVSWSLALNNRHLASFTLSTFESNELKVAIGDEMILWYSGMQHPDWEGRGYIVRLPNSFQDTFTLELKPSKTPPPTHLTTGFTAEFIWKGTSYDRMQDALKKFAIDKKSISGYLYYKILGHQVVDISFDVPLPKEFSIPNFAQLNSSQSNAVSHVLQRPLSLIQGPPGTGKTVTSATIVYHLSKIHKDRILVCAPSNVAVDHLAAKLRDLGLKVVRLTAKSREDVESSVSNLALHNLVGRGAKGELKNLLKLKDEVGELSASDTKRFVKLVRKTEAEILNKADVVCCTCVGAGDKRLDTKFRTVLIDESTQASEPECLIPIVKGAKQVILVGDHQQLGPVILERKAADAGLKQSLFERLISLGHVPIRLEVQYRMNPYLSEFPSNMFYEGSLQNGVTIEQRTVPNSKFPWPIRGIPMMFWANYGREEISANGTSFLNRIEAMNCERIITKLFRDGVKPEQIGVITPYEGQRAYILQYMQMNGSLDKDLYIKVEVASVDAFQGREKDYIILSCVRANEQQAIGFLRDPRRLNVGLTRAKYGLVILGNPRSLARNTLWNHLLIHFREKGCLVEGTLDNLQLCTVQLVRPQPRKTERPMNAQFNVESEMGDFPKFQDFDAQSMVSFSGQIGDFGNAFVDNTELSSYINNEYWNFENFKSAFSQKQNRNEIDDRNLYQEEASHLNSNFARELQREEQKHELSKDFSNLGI
# Experimental: FIG. 3. eRF3 and RNA compete for binding to Upf1p. (A) Poly(U) RNA prevents Upf1p from binding to eRF3. Reaction mixtures were prepared as described in FIG. 1B, except that binding was performed in TBSTB (TBST with 100 μg/ml BSA) and reaction mixtures contained 1 mM ATP, 1 mM GTP, or 100 μg/ml poly(U) RNA as indicated above each lane. The reaction mixtures were mixed for 1 hour at 4° C. Following mixing, the complexes were washed as in FIG. 1B with TBSTB containing 1 mM ATP, 1 mM GTP, or 100 μg/ml poly(U) RNA as indicated above each lane. […] Reaction mixtures were prepared as in FIG. 1B, in the presence or absence of […] poly(U) RNA as indicated above each lane. (C) eRF3 inhibits Upf1p RNA binding. A uniformly labeled 32 nt RNA was synthesized by SP6 transcription of SstI digested pGEM5Zf(+). The indicated amounts of GST-eRF3, were incubated with 200 ng Upf1p for 15 minutes at 4° C. 50 fmol of the RNA substrate was added and incubated for 5 minutes. Stop solution was added, and reactions electrophoresed in a 4.5% native PAGE gel (0.5×TBE, 30:0.5 acrylamide:bisacrylamide, with 5% glycerol). […]
# Further, purified Flag-Upf1p with poly(U) RNA was incubated in the presence or absence of ATP. […] GST-eRF3 was added to the reaction mixtures and the Upf1-eRF3 interaction was monitored by immunoblotting analysis as before.
# [1] = system: isogenic wild-type and upf3Δ strains; assay: Paromomycin sensitivity, zone of growth inhibition around a disc on a lawn of cells; format: cell-based, Saccharomyces cerevisiae
# Experimental: FIG. 11. Paromomycin sensitivity was monitored in isogenic wild-type and upf3Δ strains by placing a disc containing 1 mg of paromomycin onto a lawn of cells and determining the zone of growth inhibition around the disc.
# Paromomycin sensitivity was monitored in isogenic wild-type and upf3Δ strains by placing a disc containing 1 mg of paromomycin onto a lawn of cells and determining the zone of growth inhibition around the disc (FIG. 11).
# [2] = system: −1 ribosomal frameshifting; assay: β-galactosidase assay of −1 ribosomal frameshifting with plasmids pF8 / pTI25; format: cell-based, Saccharomyces cerevisiae
# Experimental: Killer assays, frameshifting assays and extraction and analysis of total nucleic acids:The killer assay was carried out as previously described (Dinman, J. D., and Wickner, R. B. (1992)) by replica plating colonies onto 4.7 MB plates newly seeded with a lawn of 5×47 killer indicator cells (0.5 ml of a suspension at 1 unit of optical density at 550 nm per ml per plate). After 2 days at 20° C., killer activity was observed as a zone of growth inhibition around the killer colonies. To quantitate loss of killer activity, colonies that had been identified as killer^+ were re-streaked for single colonies and the percentage of killer^− colonies were determined. The efficiencies of −1 frameshifting were determined as previously described (Cui, Y., Dinman, J. D., and Peltz, S. W. (1996); Dinman, J. D., Ruiz-Echevarria, M. J., Czaplinski, K. and Peltz, S. W. (1997b)) using the 0-frame control (pTI25) and −1 reporter (pF8) plasmids.
# Methods to measure efficiencies of programmed ribosomal frameshifting in vivo have been described previously (Cui, Y., Dinman, J. D., and Peltz, S. W. (1996); Dinman, J. D., Icho, T., and Wickner, R. B. (1991); Dinman, J. D., Ruiz-Echevarria, M. J., Czaplinski, K. and Peltz, S. W. (1997b)). […] Similarly, the +1 ribosomal frameshift efficiency is calculated based on the pJD104 to pTI25 β-gal ratios. […]
# [3] = system: isogenic wild-type and upf3Δ strains; details: cells harboring the mof4-1 allele of UPF1; previous results; cited from earlier work
Structure (SMILES),Effect on interaction between Upf1p and eRF3 (Upf1p-eRF3 interaction),Paromomycin sensitivity (zone of growth inhibition) ([1]; upf1Δ or upf2Δ strains),"Paromomycin sensitivity (zone of growth inhibition) ([1]; upf3Δ strain vs isogenic wild-type, disc containing 1 mg of paromomycin)","β-galactosidase activity (−1 frameshift reporter) ([2]; upf3Δ cells carrying pF8, liquid media, different concentrations of the drug)","β-galactosidase activity ([2]; wild-type cells containing pF8, or any strain carrying pTI25 (zero frame control))",Paromomycin sensitivity [3]
Nc1ncnc2c1ncn2[C@@H]1O[C@H](COP(=O)(O)OP(=O)(O)OP(=O)(O)O)[C@@H](O)[C@H]1O [ATP],did not affect the interaction; also recorded: did not prevent association of Upf1p with eRF3,,,,,
Nc1nc2c(ncn2[C@@H]2O[C@H](COP(=O)(O)OP(=O)(O)OP(=O)(O)O)[C@@H](O)[C@H]2O)c(=O)[nH]1 [GTP],not affected,,,,,
NC[C@@H]1O[C@H](O[C@H]2[C@@H](O)[C@H](O[C@@H]3[C@@H](O)[C@H](N)C[C@H](N)[C@H]3O[C@H]3O[C@H](CO)[C@@H](O)[C@H](O)[C@H]3N)O[C@@H]2CO)[C@H](N)[C@@H](O)[C@@H]1O [paromomycin],,Neither the upf1Δ or upf2Δ strains demonstrate hypersensitivity,more sensitive to paromomycin than the isogenic wild-type strain,increased continuously with increased concentrations of paromomycin,unaffected,increased sensitivity to paromomycin than the isogenic wild-type strain
